# “And” between values parts separate entries of the source, which are not always exact repeats. Identical values can stand only once.
# Test system: 699152-130-R-J1-PDC complex spheroid growth
# Assay: Anticancer human tumor 699152-130-R-J1-PDC patient-derived pancreatic carcinoma cell line growth inhibition [AhR]
# Conditions: for viability, T/C: stronger effect = lower value
# How it was run: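 Agents were dosed in half-log steps down from roughly clinical Cmax, or from 10 microM where Cmax was unknown, alone and with AhR antagonists. Read-out: percent test/control growth of tumor spheroids containing HUVEC and MSC stromal cells.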
# [1] = curve of first compound, second compound 0.1 µM
# [2] = curve of first compound, second compound 0.316 µM
# [3] = curve of first compound, second compound 1 µM
# [4] = curve of first compound, second compound 3.16 µM
# [5] = curve of first compound, second compound 10 µM
# [6] = second compound 0.1 µM, first compound 0.0316 µM
# [7] = second compound 0.1 µM, first compound 0.1 µM
# [8] = second compound 0.1 µM, first compound 0.316 µM
# [9] = second compound 0.1 µM, first compound 1 µM
# [10] = second compound 0.1 µM, first compound 3.16 µM
# [11] = second compound 0.1 µM, first compound 10 µM
# [12] = second compound 0.316 µM, first compound 0.0316 µM
# [13] = second compound 0.316 µM, first compound 0.1 µM
# [14] = second compound 0.316 µM, first compound 0.316 µM
# [15] = second compound 0.316 µM, first compound 1 µM
# [16] = second compound 0.316 µM, first compound 3.16 µM
# [17] = second compound 0.316 µM, first compound 10 µM
# [18] = second compound 1 µM, first compound 0.0316 µM
# [19] = second compound 1 µM, first compound 0.1 µM
# [20] = second compound 1 µM, first compound 0.316 µM
# [21] = second compound 1 µM, first compound 1 µM
# [22] = second compound 1 µM, first compound 3.16 µM
# [23] = second compound 1 µM, first compound 10 µM
# [24] = second compound 3.16 µM, first compound 0.0316 µM
# [25] = second compound 3.16 µM, first compound 0.1 µM
# [26] = second compound 3.16 µM, first compound 0.316 µM
# [27] = second compound 3.16 µM, first compound 1 µM
# [28] = second compound 3.16 µM, first compound 3.16 µM
# [29] = second compound 3.16 µM, first compound 10 µM
# [30] = second compound 10 µM, first compound 0.0316 µM
# [31] = second compound 10 µM, first compound 0.1 µM
# [32] = second compound 10 µM, first compound 0.316 µM
# [33] = second compound 10 µM, first compound 1 µM
# [34] = second compound 10 µM, first compound 3.16 µM
# [35] = second compound 10 µM, first compound 10 µM
# 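Further: compound exposure lasted 7 days after spheroids had grown for 3 days.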
SMILES,IC50 [1],IC50 [2],IC50 [3],IC50 [4],IC50 [5],"viability, T/C [6]","viability, T/C [7]","viability, T/C [8]","viability, T/C [9]","viability, T/C [10]","viability, T/C [11]","viability, T/C [12]","viability, T/C [13]","viability, T/C [14]","viability, T/C [18]","viability, T/C [19]","viability, T/C [24]","viability, T/C [25]","viability, T/C [30]","viability, T/C [31]",other results
CC(C)c1c(-c2ccccc2)nc2c(C#N)c[nH]n2c1=O + Cc1ccccc1N=Nc1ccc(NC(=O)c2ccnn2C)c(C)c1,> 10000 nM,> 10000 nM,> 10000 nM,> 10000 nM,> 10000 nM,104%,81.7%,89.5%,86.4%,79.6%,92.1%,94.6%,86.2%,82.6%,83.3%,93%,96%,102%,99.7%,96.6%,"viability, T/C [15]: 82.5%; viability, T/C [16]: 84.6%; viability, T/C [17]: 84.6%; viability, T/C [20]: 87.7%; viability, T/C [21]: 99.1%; viability, T/C [22]: 86.7%; viability, T/C [23]: 90.8%; viability, T/C [26]: 103%; viability, T/C [27]: 82.5%; viability, T/C [28]: 98.8%; viability, T/C [29]: 93.5%; viability, T/C [32]: 103%; viability, T/C [33]: 102%; viability, T/C [34]: 106%; viability, T/C [35]: 103%"
COc1cccc2c1C(=O)c1c(O)c3c(c(O)c1C2=O)CC(O)(C(=O)CO)CC3OC1CC(N)C(O)C(C)O1 (stereo not drawn) + Cc1ccccc1N=Nc1ccc(NC(=O)c2ccnn2C)c(C)c1,214 nM,285 nM,228 nM,154 nM,213 nM,65.5%,59.3%,44%,25.2%,4.33%,8.93%,58.8%,58.8%,45.8%,65.5%,62.9%,62.1%,53.2%,74.4%,63.1%,"viability, T/C [15]: 30.2%; viability, T/C [16]: 2.54%; viability, T/C [17]: 9.1%; viability, T/C [20]: 43%; viability, T/C [21]: 26.5%; viability, T/C [22]: 4.29%; viability, T/C [23]: 6.64%; viability, T/C [26]: 40.9%; viability, T/C [27]: 26.1%; viability, T/C [28]: 2.91%; viability, T/C [29]: 8.18%; viability, T/C [32]: 42.6%; viability, T/C [33]: 22.7%; viability, T/C [34]: 4.35%; viability, T/C [35]: 10.2%"
CCc1c2c(nc3ccc(O)cc13)-c1cc3c(c(=O)n1C2)COC(=O)[C@]3(O)CC,–,–,–,–,–,–,–,–,–,–,–,–,–,–,–,–,–,–,–,–,"viability, T/C (compound 0.000949 µM): 85.1% and 90.1% and 88.5%; viability, T/C (compound 0.003 µM): 86.8% and 87.7% and 95.1%; viability, T/C (compound 0.00949 µM): 66.3% and 61.5% and 59.9%; viability, T/C (compound 0.03 µM): 55.8% and 44.3% and 57.9%; viability, T/C (compound 0.0949 µM): 49% and 43.6% and 52%; viability, T/C (compound 0.3 µM): 33.9% and 33.8% and 38%; IC50 (curve of compound): 60.4 nM and 20 nM and 27.7 nM"
COc1ccc([C@@H](O)c2cc(-c3ncnc4cc(N5CCOCC5)ccc34)c(F)cc2Cl)nn1 + Cc1cncc(-c2nc(NCCc3c[nH]c4ccccc34)c3ncn(C(C)C)c3n2)c1,6290 nM,5200 nM,7450 nM,4640 nM,< 31.6 nM,100%,104%,89.4%,78.9%,65.4%,40.1%,95%,102%,89.2%,104%,103%,55.6%,66%,4.98%,5.41%,"viability, T/C [15]: 84.4%; viability, T/C [16]: 59.7%; viability, T/C [17]: 36.8%; viability, T/C [20]: 109%; viability, T/C [21]: 91%; viability, T/C [22]: 76.2%; viability, T/C [23]: 41.2%; viability, T/C [26]: 60.6%; viability, T/C [27]: 59.8%; viability, T/C [28]: 54.3%; viability, T/C [29]: 40.2%; viability, T/C [32]: 4.5%; viability, T/C [33]: 6.28%; viability, T/C [34]: 6.8%; viability, T/C [35]: 9.11%"
Cn1ncnc1C1c2n[nH]c(=O)c3cc(F)cc(c23)NC1c1ccc(F)cc1 (stereo not drawn) + Cc1cncc(-c2nc(NCCc3c[nH]c4ccccc34)c3ncn(C(C)C)c3n2)c1,> 100 nM,> 100 nM,> 100 nM,> 100 nM,< 0.316 nM,105%,104%,–,–,–,–,102%,104%,–,111%,124%,114%,99.1%,28%,22.5%,"viability, T/C (second compound 0.1 µM, first compound 0.000316 µM): 95.2%; viability, T/C (second compound 0.1 µM, first compound 0.001 µM): 117%; viability, T/C (second compound 0.1 µM, first compound 0.00316 µM): 109%; viability, T/C (second compound 0.1 µM, first compound 0.01 µM): 115%; viability, T/C (second compound 0.316 µM, first compound 0.000316 µM): 113%; viability, T/C (second compound 0.316 µM, first compound 0.001 µM): 115%; viability, T/C (second compound 0.316 µM, first compound 0.00316 µM): 125%; viability, T/C (second compound 0.316 µM, first compound 0.01 µM): 115%; viability, T/C (second compound 1 µM, first compound 0.000316 µM): 125%; viability, T/C (second compound 1 µM, first compound 0.001 µM): 117%; viability, T/C (second compound 1 µM, first compound 0.00316 µM): 119%; viability, T/C (second compound 1 µM, first compound 0.01 µM): 116%; viability, T/C (second compound 3.16 µM, first compound 0.000316 µM): 128%; viability, T/C (second compound 3.16 µM, first compound 0.001 µM): 114%; viability, T/C (second compound 3.16 µM, first compound 0.00316 µM): 118%; viability, T/C (second compound 3.16 µM, first compound 0.01 µM): 116%; viability, T/C (second compound 10 µM, first compound 0.000316 µM): 26.1%; viability, T/C (second compound 10 µM, first compound 0.001 µM): 28.6%; viability, T/C (second compound 10 µM, first compound 0.00316 µM): 34.2%; viability, T/C (second compound 10 µM, first compound 0.01 µM): 26.6%"
Cc1ccccc1N=Nc1ccc(NC(=O)c2ccnn2C)c(C)c1,–,–,–,–,–,–,–,–,–,–,–,–,–,–,–,–,–,–,–,–,"IC50 (compound alone, run of 07/26/2022): > 10000 nM"
